Patent US9289467B2, “Compositions and methods for treating bone conditions” (Case Western Reserve University, priority 2011, dated 2016)
“Also recorded” adds a separate entry of the source.

B1: IL-6: exogenous IL-6 (R&D Systems), 20 ng/mL supplemented into BM cell cultures (protein, UniProt P08505 25-211, looked up)
Interleukin-6: FPTSQVRRGDFTEDTTPNRPVYTTSQVGGLITHVLWEIVEMRKELCNGNSDCMNNDDALAENNLKLPEIQRNDGCYQTGYNQEICLLKISSGLLEYHSYLEYMKNNLKDNKKDKARVLQRDTETLIHIFNQEVKDLHKIVLPTPISNALLTDKLESQKEWLRTKTIQFILKSLEEFLKVTLRSTRQT
B2: C5a: purified C5a (Cell Sciences), complement activation product, 50 ng/mL (protein, UniProt P06684 679-755, looked up)
C5a anaphylatoxin: NLHLLRQKIEEQAAKYKHSVPKKCCYDGARVNFYETCEERVARVTIGPLCIRAFNECCTIANKIRKESPHKPVQLGR
modifications: C5a anaphylatoxin

Tests used:
Format in all cases: cell-based
WT BM cells = test: OC differentiation of WT mouse BM cells stimulated with 1.25(OH)2 vitamin D3, TRAP staining; details: for TRAP-positive multinuclear cells / TRAP-positive mononuclear cells / numbers of resultant OC with exogenous C3a/C5a, result in words: WT BM cells; for TRAP-positive multinuclear cells / TRAP-positive mononuclear cells: 1×10^−8M 1.25(OH)2 vitamin D3, 50 μM of each antagonist, day 12; for TRAP-positive multinuclear cells: placebo 42±9; for TRAP-positive mononuclear cells: placebo 217±25; for OC generation / differentiation, result in words: WT mouse BM cells, antagonist during 1.25(OH)2 vitamin D3 stimulation, vs placebo; for numbers of resultant OC with exogenous C3a/C5a, result in words: 50 ng/mL C3a or C5a or both added daily
Procedure: (§1) Human BM cells from healthy donors were obtained from the Hematopoietic Stem Cell Core Facility of Case Western Reserve University. Murine BM cells were isolated from 8- to 12-week-old female mouse femurs and tibias, washed, and collected in 15-mL tubes in α-modified Eagle medium (MEM) containing 10% fetal bovine serum (FBS) that was heat-inactivated to eliminate complement activity. For OC differentiation, 2×10^6 BM cells were cultured in complete α-MEM medium in wells of a 24-well plate together with 1×10^−8M 1.25(OH)2 vitamin D3 (Cayman Chemical) as described before. Cultures were fed every 3 days with fresh media. For IL-6 or C5aR antagonist (C5aRA)/C3aR antagonist (C3aRA) supplementation experiments, 20 ng/mL IL-6 (R&D Systems) or 50 μM of each antagonist or both (C5aRA: JPE-1375; custom synthesized by Anaspec; C3aRA:SB290157; purchased from BMD Chemicals) were included in the medium. For C3a and/or C5a supplementation experiments, 50 ng/mL purified C3a (BD Biosciences) or C5a (Cell Sciences) or both were added daily into WT and C3^−/− BM-cell cultures. To neutralize IL-6 in samples treated with C3a/C5a, 10 ng/mL rat anti-IL-6 mAb (Clone 6B4 IGH 54; eBioscience) were added every 2 days. At day 12, differentiated OCs were identified by conventional tartrate-resistant acid phosphatase (TRAP) staining using a kit (Sigma-Aldrich) and following the protocol provided by the manufacturer. Total numbers of TRAP-positive cells in each well were counted under a microscope, and cells containing 3 or more nuclei were categorized as multinucleated.

human BM cells = test: OC differentiation of human BM cells stimulated with 1.25(OH)2 vitamin D3, TRAP staining; details: 1.25(OH)2 vitamin D3, with antagonists vs placebo
Procedure: as §1
To determine whether the above-observed results would apply to humans, we subjected normal human BM cells to OC differentiation conditions with and without the C3aR/C5aR antagonists, then analyzed the conditioned media for the presence of factor B, factor D, and C5, and quantified the resultant TRAP^+ cells.

C3^−/− BM cells = test: OC differentiation of C3^−/− mouse BM cells stimulated with 1.25(OH)2 vitamin D3, TRAP staining; details: for numbers of resultant OC with exogenous C3a/C5a, result in words: 50 ng/mL C3a or C5a or both added daily
Procedure: as §1

| Molecule | TRAP-positive multinuclear cells (WT BM cells) | TRAP-positive mononuclear cells (WT BM cells) | OC generation / differentiation, result in words (WT BM cells) | OC differentiation (TRAP^+ cells), result in words (human BM cells) | numbers of resultant OC with exogenous C3a/C5a, result in words (WT BM cells) | numbers of resultant OC with exogenous C3a/C5a, result in words (C3^−/− BM cells; C3^−/− BM cells) | other results |
| --- | --- | --- | --- | --- | --- | --- | --- |
| NC(N)=NCCC[C@H](NC(=O)COCC(c1ccccc1)c1ccccc1)C(=O)O [C3aRA, SB290157] | 29±7 cells | 156±23 cells | significantly inhibited OC generation | significant decrease in both mononuclear and multi-nuclear TRAP^+ cells | – | – | – |
| C3a: purified C3a (BD Biosciences), complement activation product, 50 ng/mL | – | – | – | – | increased the numbers of resultant OC | increased the numbers of resultant OC | – |
| JPE-1375 [C5aRA] | 34±8 cells | 176±29 cells | did not reach a statistical significance | decrease in both cell types, but only the mono-nuclear cells were at the level of statistical significance | – | – | OC generation / differentiation, result in words (WT BM cells; listed as JPE-1375): inhibits mouse and human OC differentiation in vitro; OC differentiation (TRAP^+ cells), result in words (human BM cells; listed as JPE-1375): inhibits mouse and human OC differentiation in vitro |
| B1 | – | – | – | – | – | – | OC differentiation with IL-6 supplementation, result in words (C3^−/− BM cells; C3^−/− BM cell cultures supplemented with IL-6): rescued the C3^−/− phenotype; also recorded: restored their OC differentiation capabilities; TRAP-positive cells (multinucleated) (C3^−/− BM cells; C3^−/− BM cells, 20 ng/mL IL-6 daily, 12 days, without IL-6 31±4): 52±9; TRAP-positive cells (mononuclear) (C3^−/− BM cells; C3^−/− BM cells, 20 ng/mL IL-6 daily, 12 days, without IL-6 108±17): 249±39; Trap^+ Multi-Nucl. Cells/Well (C3^−/− BM cells; Table 2, C3^−/− BM cells + IL-6, C3^−/− without IL-6 31 ± 4): 52 ± 9 Cells/Well; Trap^+ Mono-Nucl. Cells/Well (C3^−/− BM cells; Table 2, C3^−/− BM cells + IL-6, C3^−/− without IL-6 108 ± 17): 249 ± 39 Cells/Well |
| B2 | – | – | – | – | did not appear to have a significant effect | did not appear to have a significant effect | – |
